Assay results taken from patent US6867211B2, “4-Pyridyl-and 2,4-pyrimidinyl-substituted pyrrole derivatives and their use in pharmacy” (Merckle GmbH, priority 2000, dated 2005).
Where two headings read alike, the source gives them in different places.

Key:
[1] = target: T1, COX2 (from sheep placenta) (Ovis aries, UniProt P79208); assay: In vitro test system for determining the inhibition of cyclooxygenase-2 (COX2 from sheep placenta, PGE2 ELISA); format: biochemical; conditions: read-out: COX-2 IC50
T1 construct: COX2 (from sheep placenta) is preincubated at 4° C. with test substance for 10 min; from tissue; host or cells: sheep placenta
T1 sequence (P79208 17-603): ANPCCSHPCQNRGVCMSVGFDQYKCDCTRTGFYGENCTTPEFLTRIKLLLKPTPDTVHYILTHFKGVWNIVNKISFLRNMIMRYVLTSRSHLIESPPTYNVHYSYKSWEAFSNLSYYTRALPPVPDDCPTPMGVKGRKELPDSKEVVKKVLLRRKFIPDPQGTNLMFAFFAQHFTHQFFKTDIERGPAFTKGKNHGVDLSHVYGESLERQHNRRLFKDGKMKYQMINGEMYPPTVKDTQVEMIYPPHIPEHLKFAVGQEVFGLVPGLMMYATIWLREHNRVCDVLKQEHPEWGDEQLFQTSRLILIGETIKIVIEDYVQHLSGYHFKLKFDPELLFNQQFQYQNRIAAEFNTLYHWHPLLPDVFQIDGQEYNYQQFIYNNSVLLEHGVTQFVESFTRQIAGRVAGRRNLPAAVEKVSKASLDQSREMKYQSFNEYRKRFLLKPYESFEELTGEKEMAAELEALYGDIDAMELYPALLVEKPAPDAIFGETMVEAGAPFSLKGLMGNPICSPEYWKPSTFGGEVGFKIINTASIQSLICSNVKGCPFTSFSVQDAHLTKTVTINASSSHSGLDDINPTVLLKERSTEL
Description: In vitro Test System for Determining the Inhibition of Cyclooxygenase-2
COX2 (from sheep placenta) is preincubated at 4° C. with test substance for 10 min, then stimulated with arachidonic acid (5 μM) at 25° C. for 10 min. […] The determination is carried out at 3 dilutions (10^−7, 10^−6, 10^−5 M). The PGE2 concentrations are quantified by means of ELISA (see Mitchell J. A. et al., Proc. Nat. Acad. Sci. 90: 11693-11697 (1993)).

[2] = target: T2, 5-lipoxygenase (Homo sapiens, UniProt P09917); assay: In vitro test system for determining the inhibition of 5-lipoxygenase (LTB4 from human granulocytes, A 23187, ELISA); format: cell-based; conditions: human granulocytes; read-out: 5-LO IC50
T2 construct: Human granulocytes are used as a source of the 5-lipoxygenase; endogenous in cells; host or cells: human granulocytes isolated from heparinised blood on a Percoll gradient
T2 sequence (P09917 1-674): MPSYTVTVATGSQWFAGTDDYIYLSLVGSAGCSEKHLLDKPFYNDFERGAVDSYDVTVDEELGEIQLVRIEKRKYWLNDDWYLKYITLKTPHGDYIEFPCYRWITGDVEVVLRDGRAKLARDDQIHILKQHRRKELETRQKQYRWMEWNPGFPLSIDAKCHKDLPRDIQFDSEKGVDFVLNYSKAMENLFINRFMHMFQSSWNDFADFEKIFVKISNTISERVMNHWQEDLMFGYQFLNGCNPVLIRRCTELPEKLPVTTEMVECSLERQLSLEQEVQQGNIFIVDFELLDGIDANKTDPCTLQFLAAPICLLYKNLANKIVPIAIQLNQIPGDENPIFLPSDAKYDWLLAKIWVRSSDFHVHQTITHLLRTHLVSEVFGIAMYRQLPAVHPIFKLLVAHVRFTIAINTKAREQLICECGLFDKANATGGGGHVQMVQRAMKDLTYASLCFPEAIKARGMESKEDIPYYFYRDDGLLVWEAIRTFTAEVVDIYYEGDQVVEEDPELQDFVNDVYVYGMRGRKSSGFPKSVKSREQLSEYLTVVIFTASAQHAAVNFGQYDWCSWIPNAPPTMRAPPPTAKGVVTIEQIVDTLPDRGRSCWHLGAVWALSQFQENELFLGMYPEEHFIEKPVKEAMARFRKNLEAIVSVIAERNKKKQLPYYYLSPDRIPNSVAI
Description: In vitro Test System for Determining the Inhibition of 5-lipoxygenase
Human granulocytes are used as a source of the 5-lipoxygenase. LTB4 (leukotriene B4) is formed from endogenous arachidonic acid by means of stimulation with calcium ionophore A 23187. The granulocytes are isolated and the enzyme reaction is carried out according to known processes (see Arch. Pharm. Pharm. Med. Chem. 330, 307-312 (1997)).
The blood, which is protected from clotting with heparin, is centrifuged on a discontinuous Percoll® gradient and the granulocyte layer is pipetted off. After lysis of the erythrocytes, the granulocytes are washed a number of times and then adjusted to a specific cell count. The enzyme reaction is then started with calcium ionophore A 23187 in the presence or absence of the test substance after addition of Ca2+. The synthesis of the leukotrienes is stopped after 1.5 minutes. The samples are centrifuged off and the supernatant is diluted. LTB4 is determined quantitatively by means of ELISA.

[3] = system: TNFα; assay: In vitro test procedure using PBMCs, LPS-stimulated, TNFα by ELISA; format: cell-based; conditions: Homo sapiens, PBMC; for inhibition at 1 µM: at 1 μmol; for inhibition at 10 µM: at 10 μmol
Description: (§1) In vitro Test Procedure Using PBMCs
(§2) The mononuclear cells (PBMCs) are isolated from human potassium-EDTA whole blood diluted 1:3 by means of density gradient centrifugation (Histopaque®-1.077). After 2 washing steps with DPBS buffer, the mononuclear cells are resuspended in macrophage-SFM medium and adjusted to a cell count of 1×10^6 cells/ml.
(§3) The PBMCs suspension (at 390 μl) is preincubated with test substance for 15 min at 37° C. in a CO2 incubator (5% CO2; 95% moisture-saturated air). The samples are subsequently stimulated for 4 hours with 1 μg/ml LPS (E.coli 026:B6) at 37° C. in a CO2 incubator (5% CO2, 95% moisture-saturated air). The reaction is ended by placing the samples on ice, addition of DPBS buffer and centrifugation (15880×g; 12 min). The supernatant is used for the quantification of IL-1β and TNFα by means of ELISA.

[4] = system: TNFα; assay: In vitro test procedure using human whole blood, LPS-stimulated, TNFα by ELISA; format: cell-based; conditions: Homo sapiens; whole-blood method
Description: (§4) In vitro Test Procedure Using Human Whole Blood
(§5) Human potassium-EDTA whole blood (at 400 μl) is preincubated with test substance for 15 min. at 37° C. in a CO2 incubator (5% CO2; 95% moisture-saturated air). The samples are then stimulated for 4 hours with 1 μg/ml of LPS (E. coli 026:B6) at 37° C. in a CO2 incubator (5% CO2; 95% moisture-saturated air). The reaction is ended by placing the samples on ice, addition of DPBS buffer and subsequent centrifugation (1000×g; 15 min). The plasma supernatant is used for the quantification of IL-1β and TNFα by means of ELISA.

[5] = system: IL-1β; assay: In vitro test procedure using PBMCs, LPS-stimulated, IL-1β by ELISA; format: cell-based; conditions: Homo sapiens, PBMC
Description: as §1, §2, §3

[6] = system: IL-1β; assay: In vitro test procedure using human whole blood, LPS-stimulated, IL-1β by ELISA; format: cell-based; conditions: Homo sapiens; whole-blood method
Description: as §4, §5

[7] = target: T3, cyclooxygenase-1 (Homo sapiens, UniProt P23219); assay: In vitro test system for determining the inhibition of cyclooxygenase-1 (PGE2 from human platelets, calcium ionophore, ELISA); format: cell-based; conditions: for IC50: human platelets, read-out: COX-1 IC50
T3 construct: endogenous in cells; host or cells: human platelets isolated on a discontinuous Percoll gradient
T3 sequence (P23219 24-599): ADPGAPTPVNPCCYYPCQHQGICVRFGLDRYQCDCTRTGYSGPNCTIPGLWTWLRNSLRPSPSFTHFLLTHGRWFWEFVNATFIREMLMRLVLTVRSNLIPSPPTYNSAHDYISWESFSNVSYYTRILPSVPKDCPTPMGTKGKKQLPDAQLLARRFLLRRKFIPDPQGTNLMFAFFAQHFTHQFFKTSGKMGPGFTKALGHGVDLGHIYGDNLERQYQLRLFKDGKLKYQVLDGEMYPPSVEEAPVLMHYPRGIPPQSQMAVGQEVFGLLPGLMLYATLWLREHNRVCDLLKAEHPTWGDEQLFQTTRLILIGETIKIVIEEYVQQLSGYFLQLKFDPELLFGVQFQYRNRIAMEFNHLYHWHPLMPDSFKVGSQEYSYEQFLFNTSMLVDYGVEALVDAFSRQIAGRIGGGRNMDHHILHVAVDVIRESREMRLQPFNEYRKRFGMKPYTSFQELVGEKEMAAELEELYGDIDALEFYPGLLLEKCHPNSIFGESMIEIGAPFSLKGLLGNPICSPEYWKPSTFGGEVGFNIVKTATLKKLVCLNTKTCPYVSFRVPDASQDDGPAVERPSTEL
Description: In vitro Test System for Determining the Inhibition of Cyclooxygenase-1
In this test system, the amount of prostaglandin E2 formed from human platelets after addition of calcium ionophore is determined by means of ELISA. In this process, the platelets are obtained after centrifugation on a discontinuous Percoll® gradient. The enzyme reaction and the determination of the metabolites formed is carried out in principle as in the determination of 5-lipoxygenase inhibition. Differences exist with respect to the incubation time. Furthermore, the addition of a thromboxane synthesis inhibitor is necessary (see Arch. Pharm. Pharm. Med. Chem. 330, 307-312 (1997)).

[8] = target: T1, COX2 (from sheep placenta); assay: In vitro test system for determining the inhibition of cyclooxygenase-2 (COX2 from sheep placenta, PGE2 ELISA); format: biochemical; conditions: for IC50: value in COX-2 column
[9] = 4 h, read-out: TNFα percentage inhibition
[10] = at 10 μmol, cells marked 'PBMC:' / 'whole-blood method:'

IC50 [1] | IC50 [2] | IC50 [3] | IC50 [4] | IC50 [5] | IC50 [6] | IC50 [7] | COX-1 percentage inhibition ([7]; at 10 μmol) | COX-2 percentage inhibition [8, 10] | IC50 ([8]; cell marked 'PBMC:') | IC50 ([8]; cell marked 'whole-blood method:') | COX-1 percentage inhibition ([7]; at 1.0 μmol) | COX-2 percentage inhibition ([8]; at 1 μmol, cell marked 'PBMC:') | Structure (SMILES) | inhibition at 0.1 µM ([3]; 4 h, at 0.1 μmol, read-out: TNFα percentage inhibition) | inhibition at 1 µM [3, 9] | inhibition at 10 µM [3, 9] | inhibition at 1 µM ([5]; 4 h, at 1 μmol, read-out: IL-1β percentage inhibition)
5.7 µM | 3.7 µM | 4 µM | 28 µM | 5 µM | 22 µM |  |  |  |  |  |  |  | OCc1c(-c2ccncc2)c(-c2ccc(F)cc2)n2c1CCC2 [Example 3, [3-(4-Fluorophenyl)-2-(4-pyridyl)-6,7-dihydro-5H-pyrrolizin-1-yl]methanol] |  |  |  | 
3.4 µM | 2.4 µM | 6 µM | 41 µM | 5.7 µM | 59 µM | 1.9 µM |  |  |  |  |  |  | Cc1c(-c2ccncc2)c(-c2ccc(F)cc2)n2c1CCC2 [Example 4, 5-(4-Fluorophenyl)-7-methyl-6-(4-pyridyl)-2,3-dihydro-1H-pyrrolizine] |  |  |  | 
6.1 µM | 0.065 µM | 10 µM | 30 µM | > 100 µM | 30 µM | 3.4 µM |  |  |  |  |  |  | CCOC(=O)c1c(-c2ccncc2)c(-c2ccc(F)cc2)n2c1SCC2 [Example 10A, Ethyl 5-(4-fluorophenyl)-6-(4-pyridyl)-2,3-dihydropyrrolo-[2,1-b]-thiazole-7-carboxylate] |  |  |  | 
1.6 µM | 3.3 µM |  | 37 µM | 7.5 µM | 36 µM |  | 10/35% |  |  |  |  |  | Fc1ccc(-c2c(-c3ccncc3)cc3n2CCCC3)cc1 [Example 18, 3-(4-Fluorophenyl)-2-(4-pyridyl)-5,6,7,8-tetrahydroindolizine] | 16% | 33% | 65% | 
 |  | 26 µM |  | 5.6 µM | 37 µM | 0.13 µM |  | 33% | 0.34 µM | 6 µM |  |  | Cc1c(-c2ccc(F)cc2)c(-c2ccncc2)n2c1CCC2 [Example 21, 6-(4-Fluorophenyl)-7-methyl-5-(4-pyridyl)-2,3-dihydro-1H-pyrrolizine] |  |  |  | 
 | 0.05 µM |  |  |  |  | 3.5 µM | 83% | 50% | 4 µM |  | 0% | 10% | CC1(C)CSc2c(-c3ccncc3)c(-c3ccc(F)cc3)cn2C1 [Example 23, 7-(4-Fluorophenyl)-3,3-dimethyl-8-pyridin-4-yl-3,4-dihydro-2H-pyrrolo[2,1-b][1,3]thiazine] |  | 0% | 79% | 19%
